# Data published in US5124167A, “Anti-oxidant compositions containing fat” (Bar-Ilan University, priority 1990, dated 1992).
# Test system: skin of adult mice (level of peroxides)
# Assay: Peroxide level (TBA test) in skin of adult mice after cream application
# Format: in vivo
# Details: 0.1% dissolved in Oil of Olay, similar experiments
# Experimental: The plants that may be utilized as a source of the water soluble extract include the plant tissues of selected species such as the stems and green leaves selected from the group consisting of Spinacia, Trifolium, Medicago, Zea, Penicillaria, Algae, and Nicotiana. Other plants may be utilized if an aqueous extract of the green leaves provide an antioxidant effect when it is applied to skin. The antioxidant effect is determined by the thiobarbituric acid (TBA) test. This test is described in Food Res. V. 23, P 620 (1958). Generally the level of peroxide in the skin may be determined by assay of a sample of untreated skin which is peeled from a test animal. A preweighed sample of from 10 to 50 mg is homogenized in 0.2 M phosphate buffer pH 6.5 and centrifuged. The supernatant is collected and the peroxide level is determined using the TBA test. A sample of skin from the same animal which has been treated according to the invention is also peeled and the peroxide level is determined. A reduction in the peroxide level of about 35% when an antioxidant obtained from a plant is applied as 0.5% w/w dispersion in a petrolatum base is the criteria for determining if a given plant extract is useful according to the present invention.
# Samples of creams and appropriate controls were applied to mice or rat skin for a fixed period. The application was done once a day. Experiments were terminated by killing the animals, peeling the skin and freezing it in liquid nitrogen. Samples of the frozen skin were homogenized in 0.2M phosphate buffer, pH 6.5. After centrifugation the supernatant was collected and analyzed for the peroxide value using the TBA (Thiobarbituric acid) test as described by Sinnhuber, et al. Food Res. V. 23, p 620 (1958).
# In these experiments adult mice (2months old) were treated as described in Example 2. The grown mice were shaved before applying the creams to the skin.
# In this experiment the antioxidant was dissolved in Oil of Olay. Mice were sacrificed after 21 days.
row,SMILES,effect on the level of peroxides in the skin
1,"COc1ccc(O)c(C(C)(C)C)c1 [BHA, butylated hydroxy anisole]",no reduction of the peroxides was observed
2,"Cc1cc(C(C)(C)C)c(O)c(C(C)(C)C)c1 [BHT, butylated hydroxy toluene]",no reduction of the peroxides was observed
3,Cc1c(C)c2c(c(C)c1O)CCC(C)(CCCC(C)CCCC(C)CCCC(C)C)O2 (stereo not drawn) [alpha tocopherol],no reduction of the peroxides was observed
